Measurements: ChEMBL document CHEMBL1153880, “Synthesis and adrenolytic activity of 1-(1H-indol-4-yloxy)-3-{[2-(2-methoxyphenoxy)ethyl]amino}propan-2-ol and its enantiomers. Part 1” (Eur J Med Chem, 2009)
The source made the active and inactive calls. The calls are words filed in the database; no cut-off is given here.

What was measured:
[1] = tested on: Rattus norvegicus; assay: Antiarrhythmic activity against adrenaline-induced arrhythmia in po dosed anaesthetized Wistar rat assessed as inhibition of premature ventricular beats pretreated 60 mins prior to adrenaline challenge; assay type: functional; details: Heart
[2] = tested on: Rattus norvegicus; assay: Effect on electrocardiogram in anaesthetized Wistar rat assessed as change in Q-T interval at 1 mg/kg, iv after 15 mins by electrocardiography; assay type: functional
[3] = tested on: Rattus norvegicus; assay: Effect on heart rate in anaesthetized Wistar rat assessed as number of beats per minute at 1 mg/kg, iv after 15 mins by electrocardiography; assay type: functional
[4] = tested on: Rattus norvegicus; assay: Effect on electrocardiogram in anaesthetized Wistar rat assessed as change in P-Q interval at 1 mg/kg, iv after 1 min by electrocardiography; assay type: functional
[5] = target: T1, Adrenergic receptor alpha-1 (Rattus norvegicus, UniProt P15823+P23944+P43140); assay: Displacement of [3H]prazosin from alpha1 adrenergic receptor in rat cerebral cortex by liquid scintillation method; assay type: tissue-based
T1 sequence (P15823 whole entry): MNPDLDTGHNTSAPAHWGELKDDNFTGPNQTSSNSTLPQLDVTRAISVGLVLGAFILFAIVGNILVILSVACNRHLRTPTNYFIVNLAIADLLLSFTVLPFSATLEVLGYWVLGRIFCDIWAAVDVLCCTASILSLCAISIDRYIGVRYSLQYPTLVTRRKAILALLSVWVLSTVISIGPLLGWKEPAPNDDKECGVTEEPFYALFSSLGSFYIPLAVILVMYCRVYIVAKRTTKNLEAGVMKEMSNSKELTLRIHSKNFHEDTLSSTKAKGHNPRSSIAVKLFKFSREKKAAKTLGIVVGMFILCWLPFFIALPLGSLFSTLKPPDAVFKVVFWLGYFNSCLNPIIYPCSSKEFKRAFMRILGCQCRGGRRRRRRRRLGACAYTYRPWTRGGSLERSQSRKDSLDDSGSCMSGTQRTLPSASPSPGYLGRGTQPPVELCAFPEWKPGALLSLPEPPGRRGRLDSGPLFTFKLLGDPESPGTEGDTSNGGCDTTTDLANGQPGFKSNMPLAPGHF
T1 sequence (P23944 whole entry): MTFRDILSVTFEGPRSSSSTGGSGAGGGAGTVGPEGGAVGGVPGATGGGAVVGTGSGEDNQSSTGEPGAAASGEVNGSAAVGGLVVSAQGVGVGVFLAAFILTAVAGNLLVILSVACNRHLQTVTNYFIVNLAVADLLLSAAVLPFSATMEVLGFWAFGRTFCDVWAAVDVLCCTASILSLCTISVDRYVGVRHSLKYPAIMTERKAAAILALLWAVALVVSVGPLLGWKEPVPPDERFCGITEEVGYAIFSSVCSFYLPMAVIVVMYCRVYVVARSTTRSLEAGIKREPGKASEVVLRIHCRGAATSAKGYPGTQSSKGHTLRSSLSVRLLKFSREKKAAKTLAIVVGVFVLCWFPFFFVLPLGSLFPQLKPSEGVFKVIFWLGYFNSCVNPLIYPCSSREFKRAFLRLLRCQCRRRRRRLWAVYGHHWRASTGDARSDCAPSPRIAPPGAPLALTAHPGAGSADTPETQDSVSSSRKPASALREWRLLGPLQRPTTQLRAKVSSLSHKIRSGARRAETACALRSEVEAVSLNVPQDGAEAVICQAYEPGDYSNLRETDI
T1 sequence (P43140 whole entry): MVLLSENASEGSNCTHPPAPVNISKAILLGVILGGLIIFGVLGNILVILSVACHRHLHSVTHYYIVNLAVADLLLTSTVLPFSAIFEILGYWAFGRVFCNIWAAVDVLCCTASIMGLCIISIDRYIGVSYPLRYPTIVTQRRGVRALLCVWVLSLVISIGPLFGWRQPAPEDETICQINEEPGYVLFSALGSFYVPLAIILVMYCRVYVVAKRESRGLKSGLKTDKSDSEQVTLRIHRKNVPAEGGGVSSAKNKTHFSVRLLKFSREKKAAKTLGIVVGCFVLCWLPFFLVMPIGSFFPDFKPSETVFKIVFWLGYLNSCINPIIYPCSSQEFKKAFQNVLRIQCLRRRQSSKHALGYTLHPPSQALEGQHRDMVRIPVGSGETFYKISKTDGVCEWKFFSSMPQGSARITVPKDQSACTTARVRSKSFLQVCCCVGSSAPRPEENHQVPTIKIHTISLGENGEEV

[6] = tested on: Rattus norvegicus; assay: Effect on electrocardiogram in anaesthetized Wistar rat assessed as change in P-Q-interval at 1 mg/kg, iv after 5 mins by electrocardiography; assay type: functional
[7] = tested on: Rattus norvegicus; assay: Antiarrhythmic activity against adrenaline-induced arrhythmia in iv dosed anaesthetized Wistar rat assessed as inhibition of premature ventricular beats pretreated 60 mins prior to adrenaline challenge; assay type: functional; details: Heart
[8] = tested on: Rattus norvegicus; assay: Effect on heart rate in anaesthetized Wistar rat assessed as number of beats per minute at 1 mg/kg, iv after 1 min by electrocardiography; assay type: functional
[9] = tested on: Rattus norvegicus; assay: Hypotensive activity in anaesthetized normotensive Wistar rat assessed as reduction in epinephrine-induced pressor response at 1 mg/kg, iv after 5 mins; assay type: functional, organism-based; parameters: dose 1 mg/kg
[10] = tested on: Rattus norvegicus; assay: Effect on electrocardiogram in anaesthetized Wistar rat assessed as change in QRS interval at 1 mg/kg, iv after 5 mins by electrocardiography; assay type: functional
[11] = tested on: Rattus norvegicus; assay: Effect on electrocardiogram in anaesthetized Wistar rat assessed as change in Q-T interval at 1 mg/kg, iv after 5 mins by electrocardiography; assay type: functional
[12] = tested on: Rattus norvegicus; assay: Hypotensive activity in anaesthetized normotensive Wistar rat assessed as reduction in methoxamine-induced pressor response at 1 mg/kg, iv after 5 mins; assay type: functional, organism-based; parameters: dose 1 mg/kg
[13] = tested on: Rattus norvegicus; assay: Effect on heart rate in anaesthetized Wistar rat assessed as number of beats per minute at 1 mg/kg, iv after 5 mins by electrocardiography; assay type: functional
[14] = tested on: Rattus norvegicus; assay: Effect on electrocardiogram in anaesthetized Wistar rat assessed as change in P-Q-interval at 1 mg/kg, iv after 15 mins by electrocardiography; assay type: functional
[15] = tested on: Rattus norvegicus; assay: Effect on electrocardiogram in anaesthetized Wistar rat assessed as change in Q-T interval at 1 mg/kg, iv after 1 min by electrocardiography; assay type: functional
[16] = tested on: Rattus norvegicus; assay: Effect on electrocardiogram in anaesthetized Wistar rat assessed as change in QRS interval at 1 mg/kg, iv after 1 min by electrocardiography; assay type: functional
[17] = tested on: Rattus norvegicus; assay: Effect on electrocardiogram in anaesthetized Wistar rat assessed as change in QRS interval at 1 mg/kg, iv after 15 mins by electrocardiography; assay type: functional

## COc1ccccc1OCCNC[C@H](O)COc1cccc2[nH]ccc12
[1]
  ED50: 0.61 mg/kg
[2]
  Activity: 72 ms
[3]
  Activity: 304.2 min⁻¹
[4]
  Activity: 52.3 ms
[5]
  Ki: 56.7 nM
[6]
  Activity: 49.7 ms
[7]
  ED50: 0.059 mg/kg
[8]
  Activity: 297.2 min⁻¹
[9]
  Activity: Active
[10]
  Activity: 24.3 ms
[11]
  Activity: 76.3 ms
[12]
  Activity: Active
[13]
  Activity: 291.3 min⁻¹
[14]
  Activity: 48 ms
[15]
  Activity: 72.3 ms
[16]
  Activity: 24.3 ms
[17]
  Activity: 22.7 ms

## COc1ccccc1OCCNCC(O)COc1cccc2[nH]ccc12 (racemic)
[1]
  ED50: 0.44 mg/kg
[2]
  Activity: 72.8 ms
[3]
  Activity: 287.3 min⁻¹
[4]
  Activity: 47.2 ms
[5]
  Ki: 89.8 nM
[6]
  Activity: 48.1 ms
[7]
  ED50: 0.34 mg/kg
[8]
  Activity: 298.7 min⁻¹
[9]
  Activity: Active
[10]
  Activity: 24.9 ms
[11]
  Activity: 69 ms
[12]
  Activity: Active
[13]
  Activity: 294.5 min⁻¹
[14]
  Activity: 46.2 ms
[15]
  Activity: 69.2 ms
[16]
  Activity: 28.4 ms
[17]
  Activity: 26.9 ms

## COc1ccccc1OCCNC[C@@H](O)COc1cccc2[nH]ccc12
[1]
  ED50: 1.28 mg/kg
[2]
  Activity: 62.8 ms
[3]
  Activity: 298 min⁻¹
[4]
  Activity: 53.7 ms
[5]
  Ki: 88.3 nM
[6]
  Activity: 50.7 ms
[7]
  ED50: 0.43 mg/kg
[8]
  Activity: 307.8 min⁻¹
[9]
  Activity: Active
[10]
  Activity: 21.7 ms
[11]
  Activity: 66 ms
[12]
  Activity: Active
[13]
  Activity: 310.2 min⁻¹
[14]
  Activity: 51.7 ms
[15]
  Activity: 63 ms
[16]
  Activity: 22.3 ms
[17]
  Activity: 21.7 ms
